Series [1] deals with ovariectomized rats. Briefly: Bone mineral density after six weeks of repeated administration to ovariectomized rats. The format is in vivo, rat. Particulars: once a day for six weeks, Compound 7 30 mg/kg oral. As to the method:
Female Crl:CD(SD) rats obtained from Charles River Japan, Inc. were acclimated for one week or longer under standard laboratory conditions of 20° C. to 26° C. and 35% to 75% humidity, and then used in experiments. The rats had free access to tap water and a standard rodent diet (CE-2) (Clea Japan Inc.) containing 1.1% calcium, 1.0% phosphoric acid, and 250 IU/100 g vitamin D3.
Twelve-week old rats were subjected to removal of both ovaries by surgery (OVX) or to sham surgery (Sham). After the body weight was determined in the fourth week after surgery, the rats were divided into groups so that the average body weight of each group of six rats would be even. From the subsequent day after group division, each rat was subjected to repeated administration once a day for six weeks. The solvent for oral administration (vehicle) and the solvent for subcutaneous administration (PC buffer) were respectively administered orally and subcutaneously to rats of the Sham-Control group. Vehicle and PC buffer were orally and subcutaneously administered to rats of the OVX-Control group, respectively. To rats of OVX-Compound 7, the above-mentioned Compound 7 dissolved in the vehicle was orally administered at a dose of 30 mg/kg, and PC buffer was administered subcutaneously. To rats of the OVX-hPTH(1-34) group, the vehicle was orally administered, and hPTH(1-34) dissolved in PC buffer was subcutaneously administered at a dose of 0.9 nmol/kg.
The level of AUC (area under the curve for blood concentration vs. time) was the same as when 20 μg of Forteo®, a therapeutic agent clinically used for osteoporosis, is administered to humans when the administration dose for rats was set to 0.9 nmol/kg. The administration doses were 5 mL/kg for oral administration and 1 mL/kg for subcutaneous administration in all groups. The vehicle used was a composition prepared from 10% dimethyl sulfoxide (Wako Pure Chemical Industries, Ltd.), 10% Kolliphor EL (Sigma-Aldrich Japan), and 10% hydroxypropyl-β-cyclodextrin (Nihon Shokuhin Kako Co., Ltd), whose pH was adjusted to 10 using glycine (Wako Pure Chemical Industries, Ltd.) and sodium hydroxide (Wako Pure Chemical Industries, Ltd.). The PC buffer used was a composition prepared from 25 mmol/L phosphate-citrate buffer, 100 mmol/L NaCl, and 0.05% Tween80, adjusted to pH 5.0. […] The bone mineral densities of the lumbar spine and femur were determined using a dual X-ray bone mineral scanner (DCS-600EX, Aloka). The lumbar spine bone mineral density was determined by measuring the second to fourth lumbar vertebrae; and the femur bone mineral density was determined by vertically dividing the femur into ten parts, and measuring the three parts at the distal end of the knees. […]

Series [2] relates to rat hepatocyte. Briefly: Metabolic stability using rat hepatocyte. The format is in vitro ADME. As to the method:
Liver cells were prepared from the liver of rats (SD, female) by a collagenase perfusion method. A compound of the Reference Examples or a Comparative Example was added, and this was incubated at 37° C. for a specified amount of time, followed by addition of a reaction-stopping solution. The concentration of the parent compound at each reaction time was measured using LC/MS/MS, and inherent clearance (μL/10^6 cells/min) was calculated from the slope of the reaction time versus residual rate.
• Cell concentration: 1×10^6 cells/mL • Compound concentration: 1 μM • Medium: Williams' medium E • Reaction time: 0, 15, 30, 60, 120, and 240 minutes • Reaction-stopping solution: acetonitrile/2-propanol (4/6, v/v)

The test system of series [3] is rabbit articular chondrocytes. Briefly: Suppression of terminal differentiation of rabbit articular chondrocytes (alkaline phosphatase and alizarin red staining). The note with it: BMP-2 100 ng/mL, Compound 7 10^−7 to 10^−5 mol/L, PTH(1-34) 10^−10 to 10^−7 mol/L. The series is classed as cell-based.
Method: NZW rabbits (4-week old, Oriental Yeast Co., Ltd.) were euthanized, and then the articular cartilage of the lower leg bone was collected, and transferred to a 50-mL test tube (Nippon Becton Dickinson Company). PBS (Nacalai Tesque, Inc.) containing 1% trypsin (Wako Pure Chemical Industries, Ltd.) was added to this, and the soft tissue was digested at 37° C. for one hour. This was followed by centrifugation at 1,200 rpm for five minutes, then supernatant was removed and PBS(−) was added to suspend the cartilage tissue. This was centrifuged at 1,200 rpm for five minutes, followed by removal of the supernatant, and washed three times by suspending in PBS(−). This was centrifuged at 1,200 rpm for five minutes, and then the cell pellet was digested by treatment with DMEM (Life Technologies Japan, Ltd.) containing 0.2% Type II collagenase (CLS-2, Worthington Biochemical Corp.) at 37° C. for three hours. Fetal bovine serum (Life Technologies Japan, Ltd.) was added at 10% v/v to stop the reaction, and this was vigorously pipetted using a 10-mL pipette (Nippon Becton Dickinson Company) to isolate the chondrocytes. This was centrifuged at 1,200 rpm for five minutes, followed by removal of the supernatant, and washed three times by suspending in 10% FCS-containing DMEM, and the chondrocytes were seeded at 1×10^4 cells/well on an I-type collagen-coated 96-well culture plate (AGC TECHNO GLASS CO., LTD.). Medium exchange was performed three times a week; and after the cells reached confluency, they were cultured in DMEM containing 100 μg/mL L-ascorbic acid phosphate magnesium salt n-hydrate (Wako Pure Chemical Industries, Ltd.), 10 mmol/L β-glycerophosphate pentahydrate (Wako Pure Chemical Industries, Ltd.) and 10% FCS. The following conditions were used to culture the cells, and alkaline phosphatase staining (cultured for 14 days) and alizarin red staining (cultured for 21 days) were performed to evaluate terminal differentiation of chondrocytes.
Alkaline phosphatase staining was performed by discarding the medium, then washing the chondrocytes once with 200 mmol/L Tris-HCl pH8.2 buffer, staining the cells according to the protocol supplied with the alkaline phosphatase staining kit (Vector Red Alkaline Phosphatase Substrate Kit I, Vector Laboratories, Inc.), and taking photographs with an inverted microscope (Nikon Corporation) (4× objective).
Alizarin red staining was performed by discarding the medium, then washing the chondrocytes twice with PBS, fixing the cells using 100% ethanol (Wako Pure Chemical Industries Ltd.) for 15 minutes, discarding the ethanol, and then staining with 1% alizarin red S (Wako Pure Chemical Industries Ltd.) for 15 minutes, followed by washing with distilled water; and photographs were taken with an inverted microscope.

Regarding `Cc1cc(N2C(=O)NC(=O)C2(C)C)cc(C)c1CCS(=O)(=O)N1CCC2(CC1)N=C(c1ccc(OC(F)(F)F)cc1)NC2=O` [Compound 7, 1-(3,5-dimethyl-4-(2-((4-oxo-2-(4-(trifluoromethoxy)phenyl)-1,3,8-triazaspiro[4.5]deca-1-en-8-yl)sulfonyl)ethyl)phenyl)-5,5-dimethylimidazolidine-2,4-dione], the “lumbar spine bone mineral density with respect to the OVX-Control group (in words)” value in series [1] was “increasing trend”. Moreover, the “percentage of increase in femur bone mineral density with respect to the OVX-Control group” value in series [1] (hPTH(1-34) 0.9 nmol/kg subcutaneous) was found to be 12%. The “rat hepatocyte metabolic stability compared to Comparative Examples 1, 2, 3, 5, and 6 (in words)” value in series [2] is “increased”. In addition, the “alkaline phosphatase activity (alkaline phosphatase staining)” value in series [3] (cultured for 14 days) is “suppressed alkaline phosphatase activity in a concentration-dependent manner”. For the same compound, the “alizarin red staining property (calcification)” value in series [3] (cultured for 21 days) is reported as “suppressed the alizarin staining property in a concentration-dependent manner”.

These data come from US9993462B2, “Hydantoin derivative-containing pharmaceutical composition” (Chugai Seiyaku Kabushiki Kaisha, priority 2014, dated 2018).
